# Assay results taken from US9296710B2, “Bicyclo (3.1.0) hexane-2, 6-dicarboxylic acid derivatives as mGlu2 receptor agonist” (Eli Lilly and Company, priority 2011, dated 2016).
# Assays:
# [1] = system: PCP-induced hyperlocomotor activity in rats; test: Reversal of Phencyclidine (PCP)-Induced Hyperlocomotor Activity in Rats; type: in vivo; conditions: Rattus norvegicus
# From the text: Administration of NMDA receptor antagonists, such as ketamine or phencyclidine (PCP), produces psychotomimetic-like effects in humans that are similar to those symptoms observed in patients with schizophrenia.
# Motor activity is monitored by placing individual male, Sprague-Dawley (Harlan, Indianapolis, Ind.) rats in transparent, plastic shoe-box cages of the dimensions 45×25×20 cm, with 1 cm depth of wood chips as bedding, and a metal grill on top of the cage. Motor monitors (Kinder Scientific) consist of a rectangular rack of 12 photobeams arranged in an 8×4 formation, (or a high density grouping of 22 in a 15×7 pattern) at a height of 5 cm, with a second rack (for measuring rearing behaviors) at a height of 15 cm. The shoe box cage is placed inside of these racks, with the racks on a 3 foot high tabletop in an isolated room. […] On the test day, rats are placed in the test cage and allowed to acclimate for 30 minutes prior to PCP challenge; rats are monitored for an additional 60 minutes following PCP administration.
# Data analysis and ED50 calculations are conducted using GraphPad PRISM® (San Diego, Calif. USA). Power analyses have determined that 8-10 rats per group are needed to have appropriate statistical power for detecting treatment differences (power=0.8). […]
# human mGlu2 receptor = target: T1, human mGlu2 receptor (Homo sapiens, UniProt Q14416); test: Human mGlu2 Agonist FLIPR Assay; type: cell-based
# T1 construct: expressed in transfected cells; host or cells: AV-12 cells (Syrian hamster fibroblasts), co-transfected with rat EAAT1 and Galpha15
# From the text: AV-12 cell lines, derived from Syrian Hamster fibroblasts and stably expressing the human mGlu2 receptor and co-transfected with the rat glutamate transporter EAAT 1 (Excitatory Amino Acid Transporter 1) and the Gα15 subunit, are used for these studies. The expression of Gα15 allows Gi-coupled receptors to signal through the phospholipase C pathway, resulting in the ability to measure receptor activation by a fluorometric calcium response assay. The cell lines are maintained by culturing in Dulbecco's Modified Eagle's Medium (DMEM) with high glucose and pyridoxine hydrochloride supplemented with 5% dialyzed fetal bovine serum, 1 mM sodium pyruvate, 10 mM HEPES [4-(2-hydroxyethyl)-1-piperazineethanesulfonic acid], 1 mM of L-glutamine, and 5 μg/mL blasticidin (all media are purchased from Invitrogen). Confluent cultures are passaged biweekly using an enzyme-free dissociation solution (Chemicon S-004-B).
# Intracellular calcium levels are monitored before and after the addition of compounds using a Fluorometric Imaging Plate Reader (FLIPR®, Molecular Devices). The assay buffer is comprised of Hank's Buffered Salt Solution (HBSS; Sigma) supplemented with 20 mM HEPES. […] The dye solution is removed and replaced with fresh assay buffer (50 μL per well). […] Results are analyzed using PRISM® v4.03 (GraphPad Software). […] Exemplified compounds of the present invention are solubilized as 10 mM stocks in 0.1N NaOH and stored at −20 C. They are diluted through a three-fold dilution series into assay buffer. After taking an initial 5-sec fluorescent read on the FLIPR® instrument, a compound of the present invention is added to the cell plate (50 μL per well). Data are collected every second for the first 30 seconds and then every 3 seconds for a total of 90 seconds in order to detect agonist activity. The maximal response is defined as that induced by ECmax (100 μM glutamate). The compound effect is measured as maximal minus minimal peak heights in relative fluorescent units (RFUs) corrected for basal fluorescence measured in the absence of glutamate. Determinations are carried out using single plates. Agonist effects are quantified as percent stimulation induced by compound alone relative to the maximal glutamate response. All data are calculated as relative EC50 values using a four-parameter logistic curve fitting program (ACTIVITY BASE® v5.3.1.22).
# [2] = system: stress-induced hyperthermia in rats; test: Attenuation of Stress-Induced Hyperthermia in Rats; type: in vivo, rat; conditions: i.p.
# From the text: In many anxiety disorders, hyperthermia occurs as part of the pathology and is considered a symptom of the disease. Compounds which attenuate stress-induced hyperthermia in animals are believed to be useful in treating anxiety disorders in humans. Generalized anxiety disorder is an example of such disorders that may be treated with such compounds. The conventional and minimally-invasive method for analyzing stress-induced hyperthermia is by measuring body temperature, and stress-induced increases in body temperature, via rectal thermometer. Male Fischer F-344 rats (Harlan, Indianapolis, Ind., USA) weighing between 275-350 g are tested. All animals are individually-housed with food and automated water available ad libitum, and maintained on a 12 h light/dark cycle (lights on at 06:00) Animals are fasted for approximately 12-18 hours before the experiment, which is conducted during the light phase. Rats are dosed one hour prior to the experiment by intraperitoneal (i.p.) route of administration in a dose volume of 1 mL/kg. The vehicle used was water with enough NaOH added to achieve a pH between 5-7. The mGluR5 antagonist MTEP (3-[(2-methyl-1,3-thiazol-4-yl)ethynyl]pyridine) and mGlu2/3 agonist LY317206 were used as quality controls, given that they produced reliable efficacy in this model Immediately following dosing, rats are returned to their home cage, and the experimenter turns off the lights and leaves the room. The dosing room is darkened for the remainder of the 1-hr pretreatment period.
# After the pretreatment period, rats are taken individually to a brightly lit adjacent room where baseline body temperatures are determined by insertion of a rectal probe lubricated with mineral oil. Body temperature is assessed using a […] BAT-12® Microprobe Thermometer with a […] RET-2® rat rectal probe (Physitemp Instruments Inc., Clifton, N.J., USA). The probe is inserted approximately 2 cm into the rectum, to measure the core body temperature (this is the baseline body temperature, T1, in degrees Celsius). Ten minutes later a second body temperature measurement is recorded (T2). […]
# [3] = both, human, pH 7.4
# Description: Liver S9 fractions are obtained from Xenotech LLC (Lenexa, Mo.). The lot is from a pool of two donors, one male and one female. The liver S9 fraction is prepared and diluted using a homogenization buffer consisting of 50 mM Tris, pH 7.4 at 4° C. and 150 mM potassium chloride without EDTA. Prodrug compounds are incubated in the liver homogenate for 2 hours at 37° C., after which the concentration of compound is determined by LC/MS/MS. Hydrolysis of Clopidogrel to Clopidogrel Carboxylic Acid is utilized as an assay positive control.
# Incubations are conducted in 96-well format and all prodrug compounds are run in duplicate on each day. Stock prodrug compound solutions are prepared in water at a concentration of 1 mM. Human liver S9 fraction is diluted to a final protein concentration of 0.5 mg/mL in 100 mM PBS buffer, pH 7.4. […]
# LC/MS/MS quantification of compound formed during the incubation is performed on a Sciex API 4000, Analyst version 1.4.2, TURBOIONSPRAY®, positive ionization, and Selected Reaction Monitoring (SRM). […]
# Concentrations of hydrolyzed compound in the incubation mixtures are determined from standard curves prepared by replicate two-fold dilution starting at 10 μM in 100 mM PBS pH 7.4 and subsequently quenched with methanol-internal standard solution identical to the samples. Averages and standard deviations are calculated using MICROSOFT® Office EXCEL® 2007. […]
# T1 sequence (Q14416 19-872): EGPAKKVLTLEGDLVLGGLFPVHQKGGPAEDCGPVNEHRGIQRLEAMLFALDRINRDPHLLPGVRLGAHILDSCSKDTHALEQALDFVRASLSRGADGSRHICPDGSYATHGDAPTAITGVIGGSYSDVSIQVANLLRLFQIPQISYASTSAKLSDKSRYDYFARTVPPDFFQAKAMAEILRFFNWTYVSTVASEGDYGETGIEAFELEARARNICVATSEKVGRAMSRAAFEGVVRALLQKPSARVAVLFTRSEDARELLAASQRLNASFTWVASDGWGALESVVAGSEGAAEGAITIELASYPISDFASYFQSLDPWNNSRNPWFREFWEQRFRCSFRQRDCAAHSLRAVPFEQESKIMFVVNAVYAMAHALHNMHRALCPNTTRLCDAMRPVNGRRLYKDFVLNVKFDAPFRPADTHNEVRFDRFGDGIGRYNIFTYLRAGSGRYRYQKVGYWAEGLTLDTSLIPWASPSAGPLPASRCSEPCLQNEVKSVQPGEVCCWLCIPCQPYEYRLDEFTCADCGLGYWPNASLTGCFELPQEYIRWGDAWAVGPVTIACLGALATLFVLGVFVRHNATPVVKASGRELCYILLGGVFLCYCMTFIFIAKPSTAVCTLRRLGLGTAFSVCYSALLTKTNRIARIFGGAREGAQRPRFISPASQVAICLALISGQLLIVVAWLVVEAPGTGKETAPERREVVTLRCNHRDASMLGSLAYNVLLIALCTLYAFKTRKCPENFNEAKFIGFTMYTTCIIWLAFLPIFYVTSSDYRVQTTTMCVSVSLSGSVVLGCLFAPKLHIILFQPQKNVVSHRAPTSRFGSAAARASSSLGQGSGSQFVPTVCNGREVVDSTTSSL
smiles,measurement,setting,value
"CSCC[C@H](N)C(=O)N[C@@]1(C(=O)O)C[C@H](Sc2nnc[nH]2)[C@H]2[C@H](C(=O)O)[C@H]21.Cl [Example 25, (1R,2S,4S,5R,6R)-2-(L-methionylamino)-4-(4H-1,2,4-triazol-3-ylsulfanyl) bicyclo[3.1.0] hexane-2,6-dicarboxylic acid hydrochloride]",ED50,"[1]; oral administration (prodrug), overnight fasted, 4 hours prior to 5 mg/kg PCP",6.4 mg/kg
"N[C@@]1(C(=O)O)C[C@H](Sc2nc[nH]n2)[C@H]2[C@H](C(=O)O)[C@H]21 [Example 10, (1R,2S,4S,5R,6R)-2-amino-4-(1H-1,2,4-triazol-3-ylsulfanyl)bicyclo[3.1.0]hexane-2,6-dicarboxylic acid]",EC50,"human mGlu2 receptor; hMGLUR2 FLIPR assay, AV-12 cells expressing human mGlu2, calcium response, read-out: Relative EC50",69.1 nM
same,Emax,"human mGlu2 receptor; percent stimulation relative to maximal glutamate response (100 μM glutamate), read-out: Relative % Efficacy",89%
same,ED50,"[1]; i.p. administration, 30 minutes prior to 5 mg/kg PCP",0.9 mg/kg
same,maximal reduction of stress-induced hyperthermia,[2]; at 10 mg/kg,75%
same,T35 (dose producing 35% reduction in stress-induced hyperthermic response),[2]; one hour pretreatment,1.7 mg/kg
COC(=O)[C@H](c1ccccc1Cl)N1CCc2sccc2C1 [Clopidogrel],Hydrolysis of Clopidogrel to Clopidogrel Carboxylic Acid (positive control),[3],73.0%
